From US7851472B2, “Triazolophthalazines” (NYCOMED GmbH, priority 2004, dated 2010)
“Also recorded” adds a separate entry of the source. Ends that are not written are not given here.

System: HUVEC monolayers
Test: Inhibition of macromolecule (HRP) permeability of thrombin-stimulated HUVEC monolayers
Format: cell-based, human
Settings: 10 μM Motapizone (PDE3) together with 1 μM RP73401 (PDE4), 1 U/ml thrombin
Protocol: The procedure to measure macromolecule permeability of endothelial cell monolayers followed the method described by Langeler & van Hinsbergh (1988) with modifications. Human umbilical vein endothelial cells were isolated from umbilical cords according to standard procedures (Jaffe et al. 1973) and cultured in endothelial cell basal medium (EBM) supplemented with 2% FCS, 0.5 ng/ml VEGF, 10 ng/ml bFGF, 5 ng/ml EGF, 20 ng/ml Long R3 IGF-1, 0.2 μg/ml hydrocortisone, 1 μg/ml ascorbic acid, 22.5 μg/ml heparin, 50 μg/ml gentamicin, 50 ng/ml amphotericin B (EGM2 purchased from Promocell GmbH, Heidelberg, Germany). At confluency, cells were trypsinized and replated at 73000 cells per well on 3 μm polycarbonate filter Transwell inserts (Costar GmbH, Bodenheim, Germany) precoated with 10 μg cm^2 −1 Fibronectin (Sigma, Taufkirchen, Germany). HUVECs were cultured in EGM2 (100 μl in the upper wells and 600 μl in the lower wells) over four days prior the experiments and medium was changed every other day. At the day of the experiment culture medium was replaced by M199 with 1% human serum albumin. Endothelial cells were preincubated with cyclic nucleotide modifiers (the selective PDE3 inhibitor motapizone, the selective PDE4 inhibitor RP73401, the cGMP generators ANP or SNP and PDE2 inhibitors) for 15 min. HUVECs were then stimulated with Thrombin (1 U ml^−1) (Sigma, Taufkichen, Germany) and horsh radish peroxidase (5 μg/ml) (Sigma, Taufkirchen, Germany) as the macromolecule marker protein was added to the upper wells. Following 1 h incubation time Transwells were removed and the activity of horsh radish peroxidase that penetrated the endothelial cell monolayer was measured in the lower wells with the 3,3′, 5,5′-tetramethylbenzidine liquid substrate system from Sigma (Taufkirchen, Germany).
In parallel, compounds according to the invention can inhibit Thrombin-induced permeability of HUVEC monolayers for horsh radish peroxidase (HRP) as a macromolecule marker. […] The concentration-dependent inhibition of HRP permeability at different concentrations was assessed from the percent inhibition in the presence and absence of the PDE2 inhibitors and in the presence of 1 μM RP73401, 10 μM Motapizone and 100 nM ANP.
HUVEC cells on 3 μm polycarbonate filters (Transwells) were preincubated with 1 μM RP73401 (to block PDE4) and 10 μM Motapizone (to block PDE3), 1 mM SNP or 100 nM ANP and 1 μM of test sample over 15 min and then stimulated with 1 U/ml thrombin. HRP passage into the lower wells was assessed after 60 min.

Row | Compound | Thrombin-induced increase of HRP permeability (hyperpermeability)
1 | CC1CC(=O)NN=C1c1cc(-n2ccnc2)cs1 (centres unmarked) [Motapizone, reference compound] | completely abolished; also recorded: completely blocked
2 | COc1ccc(C(=O)Nc2c(Cl)cncc2Cl)cc1OC1CCCC1 [RP73401, reference compound] | completely abolished; also recorded: completely blocked

Same assay, conditions: ANP (100 nM) or SNP (1 mM) in additional presence of 10 μM Motapizone and 1 μM RP73401

Row | Compound | Effect on the inhibition of permeability by PDE3 and 4 inhibition
3 | ANP: cGMP generator used to augment cGMP and activate PDE2 (SLRRSSCFGGRMDRIGAQSGLGCNSFRY; ends and bridges not checked; cysteine pairing not given here; UniProt P01160 124-151, looked up) [reference compound] | partially reversed

Same assay, conditions: Homo sapiens, 1 h; HUVEC, 1 μM RP73401, 10 μM Motapizone, 1 mM SNP or 100 nM ANP, 1 U/ml thrombin, HRP passage after 60 min; read-out: Inhibition of SNP- or ANP-induced permeability, −log IC50 (converted)

Row | Compound | IC50 [nM]
4 | COCC(=O)Nc1ccc(Nc2nn3c(-c4ccc(OC)cc4)nnc3c3ccccc23)cc1 [Compound 4, 2-Methoxy-N-{4-[3-(4-methoxy-phenyl)-[1,2,4]triazolo[3,4-a]phthalazin-6-ylamino]-phenyl}-acetamide] | 2 to 63.1
5 | COCCC(=O)Nc1ccc(Nc2nn3c(-c4ccc(OC)cc4)nnc3c3ccccc23)cc1 [Compound 5, 3-Methoxy-N-{4-[3-(4-methoxy-phenyl)-[1,2,4]triazolo[3,4-a]phthalazin-6-ylamino]-phenyl}-propionamide] | 2 to 63.1
6 | COc1ccc(-c2nnc3c4ccccc4c(Nc4ccc(NC(=O)c5c[nH]cn5)cc4)nn23)cc1 [Compound 11, 1H-Imidazole-4-carboxylic acid {4-[3-(4-methoxy-phenyl)-[1,2,4]triazolo[3,4-a]phthalazin-6-ylamino]-phenyl}-amide] | 2 to 63.1
7 | COc1ccc(-c2nnc3c4ccccc4c(Nc4ccc(NC(=O)C5CCCCN5)cc4)nn23)cc1 (centres unmarked) [Compound 12, Piperidine-2-carboxylic acid {4-[3-(4-methoxy-phenyl)-[1,2,4]triazolo[3,4-a]phthalazin-6-ylamino]-phenyl}-amide] | 2 to 63.1
8 | COc1ccc(-c2nnc3c4ccccc4c(Nc4ccc(NC(=O)C(F)(F)F)cc4)nn23)cc1 [Compound 17, 2,2,2-Trifluoro-N-{4-[3-(4-methoxy-phenyl)-[1,2,4]triazolo[3,4-a]phthalazin-6-ylamino]-phenyl}-acetamide] | 2 to 63.1
9 | COc1ccc(-c2nnc3c4ccccc4c(Nc4ccc(NC(=O)C5CC5)cc4)nn23)cc1 [Compound 18, Cyclopropanecarboxylic acid {4-[3-(4-methoxy-phenyl)-[1,2,4]triazolo[3,4-a]phthalazin-6-ylamino]-phenyl}-amide] | 2 to 63.1
10 | COc1ccc(-c2nnc3c4ccccc4c(Nc4ccc(NC(=O)c5ccoc5)cc4)nn23)cc1 [Compound 21, Furan-3-carboxylic acid {4-[3-(4-methoxy-phenyl)-[1,2,4]triazolo[3,4-a]phthalazin-6-ylamino]-phenyl}-amide] | 2 to 63.1
11 | COc1ccc(-c2nnc3c4ccccc4c(Nc4ccc(NC(=O)CN5CCOCC5)cc4)nn23)cc1 [Compound 25, N-{4-[3-(4-Methoxy-phenyl)-[1,2,4]triazolo[3,4-a]phthalazin-6-ylamino]-phenyl}-2-morpholin-4-yl-acetamide] | 2 to 63.1
12 | O=C(Nc1ccc(Nc2nn3c(-c4ccccc4Br)nnc3c3ccccc23)cc1)C1CCCCN1 (centres unmarked) [Compound 30, Piperidine-2-carboxylic acid {4-[3-(2-bromo-phenyl)-[1,2,4]triazolo[3,4-a]phthalazin-6-ylamino]-phenyl}-amide] | 2 to 63.1
13 | COc1ccc(-c2nnc3c4ccccc4c(Nc4cccc(NC(=O)C5CC5)c4)nn23)cc1 [Compound 38, Cyclopropanecarboxylic acid {3-[3-(4-methoxy-phenyl)-[1,2,4]triazolo[3,4-a]phthalazin-6-ylamino]-phenyl}-amide] | 2 to 63.1
14 | COc1ccc(-c2nnc3c4ccccc4c(Nc4cccc(NC(=O)C5CCN(C(C)=O)CC5)c4)nn23)cc1 [Compound 54, 1-Acetyl-piperidine-4-carboxylic acid {3-[3-(4-methoxy-phenyl)-[1,2,4]triazolo[3,4-a]phthalazin-6-ylamino]-phenyl}-amide] | 2 to 63.1
15 | CNC(=O)c1ccc(Nc2nn3c(-c4ccc(OC)cc4)nnc3c3ccccc23)cc1 [Compound 85, 4-[3-(4-Methoxy-phenyl)-[1,2,4]triazolo[3,4-a]phthalazin-6-ylamino]-N-methyl-benzamide] | 2 to 63.1

System: not given
Test: not given
Settings: not given

Row | Compound | melting point [°C]
16 | COc1ccc(-c2nnc3c4ccccc4c(Nc4ccc(N)cc4)nn23)cc1 [Compound 1, N-[3-(4-Methoxyphenyl)-[1,2,4]triazolo[3,4-a]phthalazin-6-yl]-benzene-1,4-diamine] | 295
17 | COc1ccc(-c2nnc3c4ccccc4c(Nc4ccc(NC(=O)c5ccccc5)cc4)nn23)cc1 [Compound 33, N-{4-[3-(4-Methoxyphenyl)-[1,2,4]triazolo[3,4-a]phthalazin-6-ylamino]-phenyl}-benzamide] | 323
18 | COc1ccc(-c2nnc3c4ccccc4c(Nc4cccc(NC(C)=O)c4)nn23)cc1 [Compound 66, N-{3-[3-(4-Methoxyphenyl)-[1,2,4]triazolo[3,4-a]phthalazin-6-ylamino]-phenyl}-acetamide] | 295
19 | COc1ccc(-c2nnc3c4ccccc4c(Nc4cccc(C(N)=O)c4)nn23)cc1 [Compound 109, 3-[3-(4-Methoxyphenyl)-[1,2,4]triazolo[3,4-a]phthalazin-6-ylamino]-benzamide] | 296
20 | CNC(=O)c1cccc(Nc2nn3c(-c4ccc(OC)cc4)nnc3c3ccccc23)c1 [Compound 110, 3-[3-(4-Methoxyphenyl)-[1,2,4]triazolo[3,4-a]phthalazin-6-ylamino]-N-methylbenzamide] | 316
